Measurements: the supplement of paper PMC10307832

Columns and labels:
Assay in all cases: relative viability (nuclei count vs DMSO), 5 days (fraction); higher = more cells survive
[1] = compound: CC[C@H](Nc1ncnc2[nH]cnc12)c1nc2cccc(F)c2c(=O)n1-c1ccccc1 [Idelalisib] + COc1cc2c(Oc3ccc(NC(=O)C4(C(=O)Nc5ccc(F)cc5)CC4)cc3F)ccnc2cc1OCCCN1CCOCC1 [Foretinib] (partner 0.25 µM)
Procedure, shortened: (§1)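 Relative viability equals treated-well nuclei counts divided by vehicle-well nuclei counts. Counts came from 4× images of lung cancer cell lines grown in 1536-well plates for 5 days after pin-tool dosing on the day after seeding. Dosing used one drug alone or a fixed anchor-drug dose plus five library-drug doses (not always all listed) in √10 steps, and values are medians of duplicate plates.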

[2] = compound: CC[C@H](Nc1ncnc2[nH]cnc12)c1nc2cccc(F)c2c(=O)n1-c1ccccc1 [Idelalisib] + CS(=O)(=O)N1CCN(Cc2cc3nc(-c4cccc5[nH]ncc45)nc(N4CCOCC4)c3s2)CC1 [Pictilisib] (partner 1 µM)
Procedure, shortened: as §1

[3] = compound: Nc1nc2[nH]cc(CCc3ccc(C(=O)N[C@@H](CCC(=O)O)C(=O)O)cc3)c2c(=O)[nH]1 [Pemetrexed] + Cc1nc(NC(=O)N2CCC[C@H]2C(N)=O)sc1-c1ccnc(C(C)(C)C(F)(F)F)c1 [Alpelisib] (partner 2 µM)
Procedure, shortened: as §1

[4] = compound: Nc1nc2[nH]cc(CCc3ccc(C(=O)N[C@@H](CCC(=O)O)C(=O)O)cc3)c2c(=O)[nH]1 [Pemetrexed] + Cc1nc(Nc2ncc(C(=O)Nc3c(C)cccc3Cl)s2)cc(N2CCN(CCO)CC2)n1 [Dasatinib] (partner 0.075 µM)
Procedure, shortened: as §1

Row | Cell Line | relative viability ([1]; first compound 0.04 µM) | relative viability ([1]; first compound 0.1265 µM) | relative viability ([1]; first compound 0.4 µM) | relative viability ([1]; first compound 1.265 µM) | relative viability ([1]; first compound 4 µM) | relative viability ([2]; first compound 0.04 µM) | relative viability ([2]; first compound 0.1265 µM) | relative viability ([2]; first compound 0.4 µM) | relative viability ([2]; first compound 1.265 µM) | relative viability ([2]; first compound 4 µM) | relative viability ([3]; first compound 0.002 µM) | relative viability ([3]; first compound 0.006325 µM) | relative viability ([3]; first compound 0.02 µM) | relative viability ([3]; first compound 0.06325 µM) | relative viability ([3]; first compound 0.2 µM) | relative viability ([4]; first compound 0.002 µM) | relative viability ([4]; first compound 0.006325 µM) | relative viability ([4]; first compound 0.02 µM) | relative viability ([4]; first compound 0.06325 µM) | relative viability ([4]; first compound 0.2 µM)
1 | NCI-H2009 | 1.17 | 1.21 | 1.16 | 1.23 | 1.14 | 0.85 | 0.767 | 0.798 | 0.84 | 0.768 | 1.15 | 1.13 | 1.22 | 1.12 | 1.08 | 0.299 | 0.289 | 0.377 | 0.265 | 0.307
2 | SW 900 | 0.796 | 1.14 | 0.869 | 0.766 | 0.563 | – | – | – | – | – | – | – | – | – | – | 0.637 | 0.602 | 0.657 | 0.449 | 0.477
3 | NCI-H441 | 1.15 | 1.09 | 1.05 | 1.11 | 1.2 | 0.522 | 0.451 | – | 0.375 | 0.393 | 0.667 | 0.686 | 0.932 | 0.531 | 0.53 | 0.429 | 0.573 | 0.556 | 0.392 | 0.273
4 | NCI-H1623 | 0.849 | 0.8 | 0.754 | 0.706 | 0.846 | – | – | – | – | – | – | – | – | – | – | 0.511 | 0.539 | 0.458 | 0.517 | 0.509
5 | NCI-H1437 | 1.24 | 1.32 | 1.24 | 1.36 | 1.42 | 0.491 | 0.526 | 0.429 | 0.437 | 0.525 | 0.877 | 0.939 | 0.884 | 0.506 | 0.227 | – | 0.473 | 0.468 | 0.334 | 0.21
6 | PC-14 | 1.05 | 0.988 | 0.933 | 0.995 | 0.968 | 0.765 | 0.788 | 0.705 | 0.688 | 0.506 | 0.897 | 0.958 | 0.931 | 0.535 | 0.158 | 0.249 | 0.242 | 0.316 | 0.0953 | 0.0482
7 | LCLC-103H | 0.727 | 0.728 | 0.65 | 0.829 | 0.582 | 0.756 | 0.63 | 0.517 | 0.586 | 0.574 | 0.971 | 0.992 | 1.04 | 1.01 | 0.959 | 0.43 | 0.508 | 0.55 | 0.436 | 0.489
8 | COR-L23 | 1.12 | 1.02 | 0.982 | 1.08 | 0.898 | 0.674 | 0.8 | 0.514 | 0.8 | 0.777 | 0.803 | 0.719 | 0.72 | 0.259 | 0.176 | 0.457 | 0.468 | 0.396 | 0.263 | 0.135
9 | H3255 | 0.641 | 0.569 | 0.853 | 0.939 | 0.921 | 0.416 | 0.442 | 0.44 | 0.436 | 0.404 | – | 0.656 | 0.736 | 0.606 | 0.632 | 0.236 | 0.403 | 0.429 | 0.362 | 0.29
10 | NCI-H2126 | 1.21 | 1.26 | 1.06 | 1.33 | 1.09 | 0.525 | 0.53 | 0.404 | 0.515 | 0.521 | 0.737 | 0.758 | 0.75 | 0.703 | 0.742 | 0.571 | 0.607 | 0.625 | 0.548 | 0.517
11 | HCC-366 | 0.947 | 0.867 | 0.889 | 0.971 | 0.938 | 0.138 | 0.177 | 0.0975 | 0.165 | 0.146 | 0.448 | 0.507 | 0.365 | 0.452 | 0.376 | 0.574 | 0.613 | 0.683 | 0.71 | 0.527
12 | HCC-44 | – | – | – | – | – | 0.679 | 0.646 | 0.526 | 0.59 | 0.591 | 0.771 | 0.732 | 0.854 | 0.785 | 0.602 | – | – | – | – | –
13 | EBC-1 | 0.0986 | 0.0952 | 0.0971 | 0.107 | 0.0962 | 0.399 | 0.42 | 0.343 | 0.368 | 0.209 | 0.747 | 0.848 | 0.939 | 0.836 | 0.518 | – | – | – | – | –
14 | NCI-H1703 | 0.344 | 0.356 | 0.311 | 0.399 | 0.303 | 0.229 | 0.237 | 0.23 | 0.247 | 0.197 | 0.319 | 0.38 | 0.333 | 0.338 | 0.379 | – | – | – | – | –
15 | NCI-H1299 | 1.14 | 1.16 | 1.11 | 1.16 | 1.2 | 0.764 | 0.758 | 0.833 | 0.973 | 0.606 | 1.07 | 1.03 | 1.01 | 1.01 | 1.06 | – | – | – | – | –
16 | A549 | 1.18 | 1.03 | 0.917 | 1 | 1.01 | 0.412 | 0.516 | 0.409 | 0.468 | 0.371 | 0.695 | 0.682 | 0.946 | 0.785 | 0.774 | – | – | – | – | –
17 | NCI-H522 | – | – | – | – | – | – | – | – | – | – | – | – | – | – | – | 0.881 | 0.822 | 0.967 | 0.848 | 0.933
18 | NCI-H1650 | 1.33 | 1.42 | 0.944 | 0.864 | 0.917 | 0.668 | 0.608 | 0.553 | 0.645 | 0.593 | – | – | – | – | – | 0.42 | 0.32 | 0.326 | 0.235 | 0.23
19 | NCI-H2342 | 1.02 | 1.11 | 0.886 | 0.896 | 0.729 | – | – | – | – | – | – | – | – | – | – | 0.257 | 0.322 | 0.351 | 0.325 | 0.321
20 | Calu-6 | 0.895 | 0.909 | 0.844 | 0.894 | 0.767 | 1.05 | 0.947 | 0.934 | 0.902 | 0.865 | 0.995 | 1.01 | 1.05 | 0.918 | 0.954 | – | – | – | – | –
